The target in one data set is NaV1.6 (Homo sapiens (Human), UniProt Q9UQD0). Kind of data set: Sodium Influx Assay (Flux), NaV1.6. The settings on record: read-out: Flux NaV1.6 IC50; Trex HEK293 cells, ANG2 dye; arithmetic mean.
A further data set addresses NaV1.5 (Homo sapiens (Human), UniProt Q14524). As to the kind of experiment: Sodium Influx Assay (Flux), NaV1.5. As to conditions: read-out: Flux NaV1.5 IC50; Trex HEK293 cells, ANG2 dye; arithmetic mean.
Another data set has as its target NaV1.1 (Homo sapiens (Human), UniProt P35498). As to the kind of experiment: Sodium Influx Assay (Flux), NaV1.1. The class given is cell-based. The settings on record: Trex HEK293 cells, ANG2 dye; arithmetic mean.

Where a name gives a salt, the structure may show the parent alone.

Sequence of NaV1.5 (Q14524 other isoform, or with tags, fused parts or gaps): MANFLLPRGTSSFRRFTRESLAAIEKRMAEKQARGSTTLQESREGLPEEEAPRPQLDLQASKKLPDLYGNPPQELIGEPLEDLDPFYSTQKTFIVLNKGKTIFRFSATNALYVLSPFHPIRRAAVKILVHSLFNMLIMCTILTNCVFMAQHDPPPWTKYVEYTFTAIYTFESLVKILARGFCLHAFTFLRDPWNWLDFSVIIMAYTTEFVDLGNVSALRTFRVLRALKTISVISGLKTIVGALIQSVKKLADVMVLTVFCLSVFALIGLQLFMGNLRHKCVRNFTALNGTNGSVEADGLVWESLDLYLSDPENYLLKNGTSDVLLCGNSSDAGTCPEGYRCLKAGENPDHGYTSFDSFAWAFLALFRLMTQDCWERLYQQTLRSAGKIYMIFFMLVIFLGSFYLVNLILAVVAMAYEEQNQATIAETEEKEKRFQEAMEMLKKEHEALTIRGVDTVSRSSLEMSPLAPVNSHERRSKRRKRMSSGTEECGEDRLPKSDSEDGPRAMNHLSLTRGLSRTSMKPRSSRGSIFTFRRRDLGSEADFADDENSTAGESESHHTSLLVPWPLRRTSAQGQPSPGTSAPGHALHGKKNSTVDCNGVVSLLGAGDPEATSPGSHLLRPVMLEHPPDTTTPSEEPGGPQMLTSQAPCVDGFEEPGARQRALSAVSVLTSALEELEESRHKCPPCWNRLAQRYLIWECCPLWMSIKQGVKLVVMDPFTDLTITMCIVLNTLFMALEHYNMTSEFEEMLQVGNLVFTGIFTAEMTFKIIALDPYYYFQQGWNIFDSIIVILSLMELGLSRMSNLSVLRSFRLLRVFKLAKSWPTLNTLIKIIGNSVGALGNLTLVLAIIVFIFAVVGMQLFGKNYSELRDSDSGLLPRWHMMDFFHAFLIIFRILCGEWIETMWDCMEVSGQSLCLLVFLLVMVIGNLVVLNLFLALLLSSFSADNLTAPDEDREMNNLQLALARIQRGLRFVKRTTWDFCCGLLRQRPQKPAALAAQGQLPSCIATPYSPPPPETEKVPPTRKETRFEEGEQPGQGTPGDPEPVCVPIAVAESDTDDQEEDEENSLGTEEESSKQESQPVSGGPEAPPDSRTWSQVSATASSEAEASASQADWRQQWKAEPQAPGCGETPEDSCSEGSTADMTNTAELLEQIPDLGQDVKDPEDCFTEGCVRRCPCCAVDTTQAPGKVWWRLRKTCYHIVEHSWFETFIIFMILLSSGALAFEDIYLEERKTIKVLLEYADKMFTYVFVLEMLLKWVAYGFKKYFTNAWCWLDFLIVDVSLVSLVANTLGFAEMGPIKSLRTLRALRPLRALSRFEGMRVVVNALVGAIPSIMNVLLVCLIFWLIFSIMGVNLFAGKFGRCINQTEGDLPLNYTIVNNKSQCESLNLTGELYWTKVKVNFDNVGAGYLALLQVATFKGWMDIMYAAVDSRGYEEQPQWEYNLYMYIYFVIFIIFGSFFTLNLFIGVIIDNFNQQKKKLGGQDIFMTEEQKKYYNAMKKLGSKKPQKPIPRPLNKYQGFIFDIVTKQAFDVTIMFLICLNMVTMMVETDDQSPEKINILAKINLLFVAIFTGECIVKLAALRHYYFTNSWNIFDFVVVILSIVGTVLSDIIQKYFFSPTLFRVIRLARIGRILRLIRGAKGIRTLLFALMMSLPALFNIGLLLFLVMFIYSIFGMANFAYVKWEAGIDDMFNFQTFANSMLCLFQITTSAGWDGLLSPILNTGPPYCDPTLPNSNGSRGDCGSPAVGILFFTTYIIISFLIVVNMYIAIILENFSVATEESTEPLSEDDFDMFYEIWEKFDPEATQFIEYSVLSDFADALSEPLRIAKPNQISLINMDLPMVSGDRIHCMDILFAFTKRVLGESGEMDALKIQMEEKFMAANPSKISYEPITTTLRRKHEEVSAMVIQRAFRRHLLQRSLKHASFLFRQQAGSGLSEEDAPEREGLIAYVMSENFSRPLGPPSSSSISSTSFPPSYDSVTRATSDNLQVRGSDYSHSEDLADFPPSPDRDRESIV

As for `O=S(=O)(Nc1nccs1)c1ccc(OC2CCN(Cc3ccccc3C(F)(F)F)CC2)c(Cl)c1` [Example 12, 3-chloro-N-(thiazol-2-yl)-4-((1-(2-(trifluoromethyl)benzyl)piperidin-4-yl)oxy)benzenesulfonamide], the IC50 at NaV1.6 came to 13300 nM; at NaV1.5 it was 6.35 µM; at NaV1.1 it was 13.3 µM.

With `CN(c1cc(F)c(S(=O)(=O)Nc2cscn2)cc1F)[C@H]1CCN(Cc2ccccc2)C1` [Example 293, (S)-4-((1-benzylpyrrolidin-3-yl)(methyl)amino)-2,5-difluoro-N-(thiazol-4-yl)benzenesulfonamide 2,2,2-trifluoroacetate], the IC50 was 10900 nM at NaV1.6, above 30 µM on NaV1.5 and above 30 µM at NaV1.1.

Turning to `Cc1ccc(CN2CC[C@H](N(C)c3cc(F)c(S(=O)(=O)Nc4cscn4)cc3Cl)C2)c(F)c1` [Example 167, (S)-5-chloro-2-fluoro-4-((1-(2-fluoro-4-methylbenzyl)pyrrolidin-3-yl)(methyl)amino)-N-(thiazol-4-yl)benzene-sulfonamide], the IC50 at NaV1.6 was 1690 nM; at NaV1.5, 8.85 µM; against NaV1.1 it was 6.44 µM.

For the compound `Cc1nc(CN2CC[C@H](N(C)c3cc(F)c(S(=O)(=O)Nc4cscn4)cc3C)C2)c(C(F)(F)F)o1` [Example 154, (S)-2-fluoro-5-methyl-4-(methyl(1-((2-methyl-5-(trifluoromethyl)oxazol-4-yl)methyl)pyrrolidin-3-yl)amino)-N-(thiazol-4-yl)benzenesulfonamide 2,2,2-trifluoroacetate], the values for the IC50 on NaV1.6, on NaV1.5 and against NaV1.1 were 5570 nM, 21.7 µM and 16.6 µM, respectively.

On to `Cc1ccc(F)c(CN2CC[C@H](N(C)c3ccc(S(=O)(=O)Nc4ncns4)cc3Cl)C2)c1` [Example 35, (S)-3-chloro-4-((1-(2-fluoro-5-methylbenzyl)pyrrolidin-3-yl)(methyl)amino)-N-(1,2,4-thiadiazol-5-yl)benzenesulfonamide], for which the results for the IC50 on NaV1.6, at NaV1.5 and against NaV1.1 were 21 nM, above 30 µM and 15.9 µM, respectively.

Turning to `O=S(=O)(Nc1nccs1)c1ccc(OC2CCN(Cc3cccc(F)c3)CC2)c(Cl)c1` [Example 81, 3-chloro-4-(1-(3-fluorobenzyl)piperidin-4-yloxy)-N-(thiazol-2-yl)benzenesulfonamide], the IC50 at NaV1.6 came out at 572 nM; at NaV1.5, 7.22 µM; at NaV1.1 it was 7.48 µM.

For the compound `Cc1cc(S(=O)(=O)Nc2cscn2)c(F)cc1N[C@H]1CCN(Cc2ccccc2)C1` [Example 288, (S)-4-((1-benzylpyrrolidin-3-yl)amino)-2-fluoro-5-methyl-N-(thiazol-4-yl)benzenesulfonamide 2,2,2-trifluoroacetate], the IC50 at NaV1.6 was 4320 nM; on NaV1.5 it was 27.4 µM; at NaV1.1 it was 15.9 µM.

Consider `CN(c1cc(F)c(S(=O)(=O)Nc2cscn2)cc1Cl)[C@H]1CCN(CCC(C)(C)C)C1` [Example 175, (S)-5-chloro-4-((1-(3,3-dimethylbutyl)-pyrrolidin-3-yl)(methyl)amino)-2-fluoro-N-(thiazol-4-yl)benzene-sulfonamide 2,2,2-trifluoroacetate], for which the IC50 is 2550 nM at NaV1.6, above 30 µM at NaV1.5 and 13.2 µM on NaV1.1.

Turning to `CN(c1ccc(S(=O)(=O)Nc2ncns2)cc1Cl)[C@H]1CCN(Cc2cc(F)ccc2F)C1` [Example 325, (S)-3-chloro-4-((1-(2,5-difluorobenzyl)pyrrolidin-3-yl)(methyl)amino)-N-(1,2,4-thiadiazol-5-yl)benzenesulfonamide], the IC50 was 260 nM at NaV1.6, 27 µM at NaV1.5 and 23.2 µM at NaV1.1.

Consider `Cc1cc(S(=O)(=O)Nc2cscn2)c(F)cc1N(C)[C@H]1CCN(Cc2ccccn2)C1` [Example 278, (S)-2-fluoro-5-methyl-4-(methyl(1-(pyridin-2-ylmethyl)pyrrolidin-3-yl)amino)-N-(thiazol-4-yl)benzenesulfonamide 2,2,2-trifluoroacetate], for which the IC50 at NaV1.6 is 893 nM; on NaV1.5, above 30 µM; at NaV1.1, above 30 µM.

As to `C[C@@H](c1ccccc1)N1CC[C@H](N(C)c2ccc(S(=O)(=O)Nc3cscn3)cc2Cl)C1` [Example 250, 3-chloro-4-(methyl((S)-1-((S)-1-phenylethyl)pyrrolidin-3-yl)amino)-N-(thiazol-4-yl)benzenesulfonamide 2,2,2-trifluoroacetate], the IC50 on NaV1.6 was determined as 1420 nM; at NaV1.5 it was 6.48 µM; at NaV1.1 it was 5.5 µM.

`CC1(Nc2ccc(S(=O)(=O)Nc3cscn3)cc2Cl)CN(Cc2ccccc2)C1` [Example 255, 4-((1-benzyl-3-methylazetidin-3-yl)amino)-3-chloro-N-(thiazol-4-yl)benzenesulfonamide 2,2,2-trifluoroacetate]: the half-maximal inhibitory concentration (IC50) on NaV1.6 is 3700 nM; at NaV1.5, 12.7 µM; against NaV1.1, 9.14 µM.

On to `O=S(=O)(Nc1cscn1)c1c(F)cc(O[C@H]2CCN(Cc3ccccc3)C2)c(Br)c1F` [Example 274, (S)-4-((1-benzylpyrrolidin-3-yl)oxy)-3-bromo-2,6-difluoro-N-(thiazol-4-yl)benzenesulfonamide formate], for which the IC50 is 1860 nM at NaV1.6, 10 µM on NaV1.5 and above 30 µM against NaV1.1.

As for `CN(c1cc(F)c(S(=O)(=O)Nc2cscn2)cc1Cl)[C@H]1CCN(Cc2c(F)cccc2Cl)C1` [Example 169, (S)-5-chloro-4-((1-(2-chloro-6-fluorobenzyl)pyrrolidin-3-yl)(methyl)amino)-2-fluoro-N-(thiazol-4-yl)benzene-sulfonamide 2,2,2-trifluoroacetate], the IC50 was 821 nM on NaV1.6, 5.27 µM at NaV1.5 and 4.62 µM on NaV1.1.

As for `Cc1cc(C)cc(CN2CCC(Oc3ccc(S(=O)(=O)Nc4nccs4)cc3Cl)CC2)c1` [Example 94, 3-chloro-4-(1-(3,5-dimethylbenzyl)piperidin-4-yloxy)-N-(thiazol-2-yl)benzenesulfonamide], the IC50 was 3440 nM at NaV1.6, 7.62 µM on NaV1.5 and 11.4 µM at NaV1.1.

As for `CN(c1cc(F)c(S(=O)(=O)Nc2cscn2)cc1Cl)[C@H]1CCN(Cc2cccc(N3CCC3)n2)C1` [Example 317, (S)-4-((1-((6-(azetidin-1-yl)pyridin-2-yl)methyl)pyrrolidin-3-yl)(methyl)amino)-5-chloro-2-fluoro-N-(thiazol-4-yl)benzenesulfonamide 2,2,2-trifluoroacetate], the results for the IC50 on NaV1.6, at NaV1.5 and at NaV1.1 were 1030 nM, 8.12 µM and 9.89 µM, respectively.

On to `CN(C)c1ccc(CN2CC[C@H](N(C)c3cc(F)c(S(=O)(=O)Nc4cscn4)cc3Cl)C2)cc1` [Example 199, (S)-5-chloro-4-((1-(4-(dimethylamino)benzyl)pyrrolidin-3-yl)(methyl)amino)-2-fluoro-N-(thiazol-4-yl)benzenesulfonamide], for which the IC50 at NaV1.6 is 8420 nM; at NaV1.5, above 30 µM; against NaV1.1, 7.88 µM.

With `Cc1cc(S(=O)(=O)Nc2cscn2)c(F)cc1O[C@@]1(C)CCN(Cc2ccccc2)C1` [Example 159, (S)-4-((1-benzyl-3-methylpyrrolidin-3-yl)oxy)-2-fluoro-5-methyl-N-(thiazol-4-yl)benzenesulfonamide formate], the IC50 at NaV1.6 was 178 nM; on NaV1.5 it was above 30 µM; against NaV1.1, above 30 µM.

In the case of `CN(c1cc(F)c(S(=O)(=O)Nc2cscn2)cc1Cl)[C@H]1CCN(Cc2ccc(F)cc2)C1` [Example 180, (S)-5-chloro-2-fluoro-4-((1-(4-fluorobenzyl)-pyrrolidin-3-yl)(methyl)amino)-N-(thiazol-4-yl)benzene-sulfonamide], the figures for the IC50 at NaV1.6, on NaV1.5 and against NaV1.1 were 5290 nM, 25.4 µM and 16.8 µM, respectively.

For `CN(c1cc(F)c(S(=O)(=O)Nc2cscn2)c(F)c1)[C@H]1CCN(Cc2ccccc2)C1` [Example 286, (S)-4-((1-benzylpyrrolidin-3-yl)(methyl)amino)-2,6-difluoro-N-(thiazol-4-yl)benzenesulfonamide formate], the values for the IC50 on NaV1.6, at NaV1.5 and on NaV1.1 were 2220 nM, 1.99 µM and 2.27 µM, respectively.

Turning to `Cc1c(N(C)[C@H]2CCN(Cc3cc(F)ccc3F)C2)cc(F)c(S(=O)(=O)Nc2cscn2)c1F` [Example 240, (S)-4-((1-(2,5-difluorobenzyl)pyrrolidin-3-yl)(methyl)amino)-2,6-difluoro-3-methyl-N-(thiazol-4-yl)benzenesulfonamide 2,2,2-trifluoroacetate], the figures for the IC50 on NaV1.6, at NaV1.5 and against NaV1.1 were 93 nM, 7.46 µM and 8.06 µM, respectively.

As to `Cc1cccc(C)c1CN1CC[C@H](N(C)c2cc(F)c(S(=O)(=O)Nc3cscn3)cc2Cl)C1` [Example 203, (S)-5-chloro-4-((1-(2,6-dimethylbenzyl)pyrrolidin-3-yl)(methyl)amino)-2-fluoro-N-(thiazol-4-yl)benzenesulfonamide], the values for the IC50 on NaV1.6, on NaV1.5 and against NaV1.1 were 4150 nM, 6.7 µM and 5.74 µM, respectively.

With `Cc1cc(S(=O)(=O)Nc2cscn2)c(F)cc1N(C)[C@H]1CCN(Cc2nc(C(C)C)cs2)C1` [Example 145, (S)-2-fluoro-4-((1-((4-isopropylthiazol-2-yl)methyl)pyrrolidin-3-yl)(methyl)amino)-5-methyl-N-(thiazol-4-yl)benzenesulfonamide], the IC50 was 515 nM on NaV1.6, 17.1 µM on NaV1.5 and 9.63 µM on NaV1.1.

As for `CN(c1cc(F)c(S(=O)(=O)Nc2cscn2)cc1Cl)[C@H]1CCN(Cc2nc(C(F)F)ccc2F)C1` [Example 163, (S)-5-chloro-4-((1-((6-(difluoromethyl)-3-fluoropyridin-2-yl)methyl)pyrrolidin-3-yl)(methyl)amino)-2-fluoro-N-(thiazol-4-yl)benzenesulfonamide formate], the IC50 at NaV1.6 was 2800 nM; at NaV1.5, above 30 µM; against NaV1.1, above 30 µM.

What is called IC50 is the concentration that gives 50% inhibition.

The record behind these values is US10246453B2, “Benzenesulfonamide compounds and their use as therapeutic agents” (Xenon Pharmaceuticals Inc., priority 2016, dated 2019).
